Data published in US20090054398A1, “CHEMICAL COMPOUNDS” (ASTRAZENECA AB, priority 2006, published 2009).
Where a name gives a salt, the structure may show the parent alone.

test system: Notch 1 intracellular domain; test: Ability of compounds to block Notch signaling: Western analysis of active Notch 1 protein (Notch 1 intracellular domain) in SUP-T1 cells; format: cell-based; conditions: Homo sapiens; T lymphoblast SUP-T1 cells, 12-16 h with compound; Western blot with antibody to cleaved Notch 1 (Val 1744), band of approximately 100 kDa; read-out: estimated IC50
Procedure: T lymphoblast SUP-T1 cells (CRL-1942, ATCC, Manassas, Va.) are routinely cultured in culture medium comprising RPMI-1640 (Invitrogen, Carlsbad, Calif.) supplemented with 10% Fetal Bovine serum (Sigma Chemical Co., St. Louis, Mo.) and 2 mM glutamine (Invitrogen, Carlsbad, Calif.) and grown at 37° C. at 95%/5% (v/v) air/CO2 in 95% relative humidity (standard cell culture conditions). Cells in culture medium are plated into flat-bottomed tissue culture plates (Corning Costar, Acton, Mass.) Subsequently, a compound of Formula (1) or vehicle (e.g., 0.1% (v/v) DMSO) may be added and plates are incubated for a further 12-16 h under standard cell culture conditions. Subsequently, the presence of active Notch 1 protein (Notch 1 intracellular domain) is determined by Western analysis according to conventional methods. Immunoblotting is performed using a primary antibody to cleaved Notch 1 (Val 1744; Cell Signaling Technology, Danvers, Mass.) and a goat anti-rabbit horseradish peroxidase conjugated secondary antibody (Santa Cruz Biotechnology, Santa Cruz, Calif.). For Western blotting, equal amounts of protein extracted from each sample (20 μg) are loaded into pre-cast 4-12% NuPAGE Tris-Glycine gels (Invitrogen, Carlsbad, Calif.). Proteins are separated by SDS-PAGE and transferred electrophoretically to polyvinylidene diflouride membranes (Invitrogen, Carlsbad, Calif.) using a semi-dry blotter. The membrane is washed briefly in Tris-buffered saline (TBS) (Bio-Rad Laboratories, Hercules, Calif.) and blocked for 1 h in TBS supplemented with 0.05% (v/v) Tween 20 (TBST) and 5% (w/v) dried milk, before being incubated for ˜12 h with primary antibody in TBS supplemented with 0.05% (v/v) Tween 20 (TBST) and 5% (w/v) dried milk. Following washing in TBST, the membrane is incubated with secondary antibody as indicated prior to visualization via enhanced chemiluminescent detection using DuraWest reagent (Pierce Biotechnology, Rockford, Ill.) and is detected with Amersham Hyperfilm MP according to the manufacturer's instructions. […]

IC50 [µM] | Compound
0.00398 | C[C@H](NC(=O)Cc1cc(F)cc(F)c1)C(=O)N[C@@H]1C(=O)Nc2cc(F)ccc2O[C@@H]1c1ccccc1 [Example 75, N^2-[(3,5-Difluorophenyl)acetyl]-N^1-[(2R,3S)-7-fluoro-4-oxo-2-phenyl-2,3,4,5-tetrahydro-1,5-benzoxazepin-3-yl]-L-alaninamide]
0.0501 | C[C@H](NC(=O)Cc1cc(F)cc(F)c1)C(=O)N[C@@H]1C(=O)Nc2ccccc2S[C@@H]1c1ccsc1 [Example 100, N^2-[(3,5-Difluorophenyl)acetyl]-N^1-[(2R,3R)-4-oxo-2-(3-thienyl)-2,3,4,5-tetrahydro-1,5-benzothiazepin-3-yl]-L-alaninamide]
0.0166 | C[C@H](NC(=O)Cc1ccccc1F)C(=O)N[C@@H]1C(=O)Nc2ccccc2O[C@@H]1c1ccccc1 [Example 114, N^2-[(2-Fluorophenyl)acetyl]-N^1-[(2R,3S)-4-oxo-2-phenyl-2,3,4,5-tetrahydro-1,5-benzoxazepin-3-yl]-L-alaninamide]

test system: not given; test: not given; conditions: not given

melting point [°C] | Compound
184 to 195 | C[C@H](NCCc1ccccc1)C(=O)N[C@@H]1C(=O)Nc2ccccc2S[C@@H]1c1ccccc1 (as salt: hydrochloride) [Example 98, N^1-[(2R,3R)-4-Oxo-2-phenyl-2,3,4,5-tetrahydro-1,5-benzothiazepin-3-yl]-N^2-(2-phenylethyl)-L-alaninamide]
128 to 133 | C[C@H](NC(=O)Cc1cc(F)cc(F)c1)C(=O)N[C@@H]1C(=O)NCCS[C@@H]1c1ccccc1 [Example 7, N^2-[(3,5-Difluorophenyl)acetyl]-N^1-[(6R,7R)-5-oxo-7-phenyl-1,4-thiazepan-6-yl]-L-alaninamide]
114 to 124 | C[C@H](NC(=O)Cc1ccccc1)C(=O)N[C@@H]1C(=O)Nc2ccccc2S[C@@H]1c1ccccc1 [Example 97, N^1-[(2R,3R)-4-Oxo-2-phenyl-2,3,4,5-tetrahydro-1,5-benzothiazepin-3-yl]-N^2-(phenylacetyl)-L-alaninamide]
117 to 119 | C[C@H](NC(=O)Cc1cc(F)cc(F)c1)C(=O)N[C@@H]1C(=O)Nc2ccccc2S[C@@H]1c1cccs1 [Example 99, N^2-[(3,5-Difluorophenyl)acetyl]-N^1-[(2S,3R)-4-oxo-2-(2-thienyl)-2,3,4,5-tetrahydro-1,5-benzothiazepin-3-yl]-L-alaninamide]
117 to 122 | C[C@H](NC(=O)Cc1cc(F)cc(F)c1)C(=O)N[C@@H]1C(=O)Nc2ccccc2S[C@@H]1c1ccsc1 [Example 100, N^2-[(3,5-Difluorophenyl)acetyl]-N^1-[(2R,3R)-4-oxo-2-(3-thienyl)-2,3,4,5-tetrahydro-1,5-benzothiazepin-3-yl]-L-alaninamide]
125 to 130 | C[C@H](NC(=O)Cc1cc(F)cc(F)c1)C(=O)N[C@@H]1C(=O)Nc2ccccc2S[C@@H]1c1ccco1 [Example 101, N^2-[(3,5-Difluorophenyl)acetyl]-N^1-[(2S,3R)-2-(2-furyl)-4-oxo-2,3,4,5-tetrahydro-1,5-benzothiazepin-3-yl]-L-alaninamide]
115 to 120 | C[C@H](NC(=O)Cc1cc(F)cc(F)c1)C(=O)N[C@@H]1C(=O)Nc2ccccc2S[C@H]1c1ccoc1 [Example 102, N^2-[(3,5-Difluorophenyl)acetyl]-N^1-[(2S,3R)-2-(3-furyl)-4-oxo-2,3,4,5-tetrahydro-1,5-benzothiazepin-3-yl]-L-alaninamide]
139 to 140 | C[C@H](NC(=O)Cc1cc(F)cc(F)c1)C(=O)N[C@@H]1C(=O)Nc2ccccc2S[C@@H]1c1ccc(Br)s1 [Example 103, N^1-[(2S,3R)-2-(5-Bromo-2-thienyl)-4-oxo-2,3,4,5-tetrahydro-1,5-benzothiazepin-3-yl]-N^2-[(3,5-difluorophenyl)acetyl]-L-alaninamide]
145 to 155 | C[C@H](NC(=O)Cc1cc(F)cc(F)c1)C(=O)N[C@@H]1C(=O)Nc2ccccc2S[C@@H]1c1cc(Br)cs1 [Example 104, N^1-[(2S,3R)-2-(4-Bromo-2-thienyl)-4-oxo-2,3,4,5-tetrahydro-1,5-benzothiazepin-3-yl]-N^2-[(3,5-difluorophenyl)acetyl]-L-alaninamide]
115 to 120 | N[C@@H](Cc1ccccc1)C(=O)N(C(=O)Cc1cc(F)cc(F)c1)[C@@H]1C(=O)Nc2ccccc2S[C@@H]1c1ccccc1 [Example 105, N-[(3,5-Difluorophenyl)acetyl]-N-[(2R,3R)-4-oxo-2-phenyl-2,3,4,5-tetrahydro-1,5-benzothiazepin-3-yl]-L-phenylalaninamide]
125 to 130 | O=C(Cc1cc(F)cc(F)c1)NCC(=O)N[C@@H]1C(=O)Nc2ccccc2S[C@@H]1c1ccccc1 [Example 106, N^2-[(3,5-Difluorophenyl)acetyl]-N^1-[(2R,3R)-4-oxo-2-phenyl-2,3,4,5-tetrahydro-1,5-benzothiazepin-3-yl]glycinamide]
110 to 115 | CC(C)[C@H](NC(=O)Cc1cc(F)cc(F)c1)C(=O)N[C@@H]1C(=O)Nc2ccccc2S[C@@H]1c1ccccc1 [Example 107, N^2-[(3,5-Difluorophenyl)acetyl]-N^1-[(2R,3R)-4-oxo-2-phenyl-2,3,4,5-tetrahydro-1,5-benzothiazepin-3-yl]-L-valinamide]
85 to 90 | CSCC[C@H](NC(=O)Cc1cc(F)cc(F)c1)C(=O)N[C@@H]1C(=O)Nc2ccccc2S[C@@H]1c1ccccc1 [Example 109, N^2-[(3,5-Difluorophenyl)acetyl]-N^1-[(2R,3R)-4-oxo-2-phenyl-2,3,4,5-tetrahydro-1,5-benzothiazepin-3-yl]-L-methioninamide]
85 to 90 | O=C(Cc1cc(F)cc(F)c1)N[C@@H](Cc1cc2ccccc2[nH]1)C(=O)N[C@@H]1C(=O)Nc2ccccc2S[C@@H]1c1ccccc1 [Example 110, N^2-[(3,5-Difluorophenyl)acetyl]-3-(1H-indol-2-yl)-N^1-[(2R,3R)-4-oxo-2-phenyl-2,3,4,5-tetrahydro-1,5-benzothiazepin-3-yl]-L-alaninamide]
122 to 136 | C[C@H](NC(=O)Cc1ccccc1)C(=O)N[C@@H]1C(=O)Nc2ccccc2O[C@@H]1c1ccccc1 [Example 113, N^1-[(2R,3S)-4-Oxo-2-phenyl-2,3,4,5-tetrahydro-1,5-benzoxazepin-3-yl]-N^2-(phenylacetyl)-L-alaninamide]
115 to 135 | C[C@H](NC(=O)Cc1ccccc1F)C(=O)N[C@@H]1C(=O)Nc2ccccc2O[C@@H]1c1ccccc1 [Example 114, N^2-[(2-Fluorophenyl)acetyl]-N^1-[(2R,3S)-4-oxo-2-phenyl-2,3,4,5-tetrahydro-1,5-benzoxazepin-3-yl]-L-alaninamide]
130 to 140 | C[C@H](NC(=O)Cc1cccc(F)c1)C(=O)N[C@@H]1C(=O)Nc2ccccc2O[C@@H]1c1ccccc1 [Example 115, N^2-[(3-Fluorophenyl)acetyl]-N^1-[(2R,3S)-4-oxo-2-phenyl-2,3,4,5-tetrahydro-1,5-benzoxazepin-3-yl]-L-alaninamide]
130 to 140 | C[C@H](NC(=O)Cc1ccc(F)cc1)C(=O)N[C@@H]1C(=O)Nc2ccccc2O[C@@H]1c1ccccc1 [Example 116, N^2-[(4-Fluorophenyl)acetyl]-N^1-[(2R,3S)-4-oxo-2-phenyl-2,3,4,5-tetrahydro-1,5-benzoxazepin-3-yl]-L-alaninamide]
